Positions of bridges follow the written chain, without caps; N, C: chain ends. Residues, ends and D or L forms follow the SMILES beside them.
Experiment: Membrane partitioning of toxins into lipid vesicles measured using Trp fluorescence
Type: physicochemical
Conditions: LUVs 1:1 POPC:POPG
Excerpt: Motivated by the amphipathic character evident in the structure of DkTx, together with the placement of the toxin at the protein-lipid interface when bound to TRPV1, we investigated the interaction of DkTx and each of its two lobes with lipid membranes. For these experiments, we took advantage of the presence of a single conserved and solvent accessible Trp residue in loop 2 of both K1 and K2 (Figure 1C,D; W11 and W53), and used Trp fluorescence to monitor the partitioning of the toxin from the aqueous solution into the membrane environment ([Gupta et al., 2015]; [Ladokhin et al., 2000]; [Milescu et al., 2007]). When aqueous solutions of DkTx were excited at a wavelength of 280 nm, emission spectra with maxima at 353 nm were obtained (Figure 5A, left), as expected for Trp residues residing in such an environment. […] To quantify the extent of partitioning as a function of lipid concentration, we measured the relative fluorescence intensity in a blue-shifted region of the spectra (e.g. 320 nm) as a function of lipid concentration, and fit a partition function to the data to obtain a mole-fraction partition coefficient (Kx) of (2.3 ± 0.7) × 10^6, indicating an energetically favorable interaction of DkTx with lipid membranes (Figure 5A, right). This strong interaction of DkTx with membranes would facilitate binding of the toxin to the channel by increasing the local concentration of the toxin near the channel and by a reduction in the dimensionality of diffusion within the membrane ([Axelrod and Wang, 1994]).
Figure 5. Interaction of DkTx and toxin constructs with lipid membranes measured using Trp fluorescence. (A–E, left panel) Trp emission spectra of DkTx (A), K1 without linker (B), K2 (C), bivalent K1 (K1K1) (D) and bivalent K2 (K2K2) (E) in the absence (black) and presence (blue, 1.6 mM for DkTx, 2 mM for K1-ΔL and K1K1, and 3 mM for K2 and K2K2) of lipid vesicles (1:1 mix of POPC:POPG). (A–E, right panel) Relative fluorescence intensity at 320 nm (F/F0) as a function of available lipid concentrations (60% of total lipid concentration). Smooth curves correspond to partition functions with Kx = (2.3 ± 0.7) × 10^6 and F/F0^max = 2.65 ± 0.08 for DkTx, Kx = (3.9 ± 1.1) × 10^5 and F/F0^max = 2.63 ± 0.07 for K1-ΔL, Kx = (2.0 ± 0.3) × 10^4 and F/F0^max = 3.71 ± 0.40 for K2, Kx = (2.9 ± 0.3) × 10^6 and F/F0^max = 2.47 ± 0.03 for K1K1 and Kx = (8.1 ± 2) × 10^5 and F/F0^max = 2.77 ± 0.55 for K2K2. Error bars correspond to SEM (n = 3 or 4). Partition functions for K1-ΔL and K2 are shown as dotted lines for comparison in D and E, respectively. (F) Comparisons of mole-fraction partition coefficient (Kx) of toxins. 7G-DkTx denotes a construct of DkTx whose linker (PYVPVTT) is replaced with 7 Gly residues. Error bars correspond to SEM (n = 3 or 4). DOI: http://dx.doi.org/10.7554/eLife.11273.020 Figure 5—figure supplement 1. Interaction of K1-K2 chimeras with lipid membranes measured using Trp fluorescence. (A–E, left panel) Trp emission spectra of K1(D1N) (A), K1(K2L2) (B), K1(K2L3) (C), K1(K2L4) (D) and K1(K2CT) (E) in the absence (black) and presence (blue, 2 mM) of lipid vesicles (1:1 mix of POPC:POPG). (A–D, right panel) Relative fluorescence intensity at 320 nm (F/F0) as a function of available lipid concentrations (60% of total lipid concentration). Smooth curves correspond to partition functions with Kx = (1.76 ± 0.06) × 10^6 and F/F0^max = 3.79 ± 0.02 for K1(D1N), Kx = (4.77 ± 1.39) × 10^5 and F/F0^max = 1.31 ± 0.02 for K1(K2L2), Kx = (1.02 ± 0.04) × 10^4 and F/F0^max = 3.69 ± 0.02 for K1(K2L3), and Kx = (0.90 ± 0.04) × 10^6 and F/F0^max = 2.59 ± 0.02 for K1(K2L4). Error bar corresponds to SEM (n = 3 or 4). Smooth curve of K1-ΔL was shown as a dotted line for comparison throughout the figures. (F) Comparisons of mole-fraction partition coefficient (Kx) of toxins. Error bars correspond to SEM (n = 3 or 4). DOI: http://dx.doi.org/10.7554/eLife.11273.021 [drawing 10] […]

## CC[C@H](C)[C@@H]1NC(=O)[C@H](Cc2ccccc2)NC(=O)[C@H](C)NC(=O)[C@H](CC(C)C)NC(=O)[C@@H]2CCCN2C(=O)[C@@H]2CSSC[C@@H]3NC(=O)[C@H](C(C)C)NC(=O)[C@H](CCC(=O)O)NC(=O)CNC(=O)[C@H](CCC(=O)O)NC(=O)[C@H](CCCCN)NC(=O)[C@H](C)NC(=O)[C@@H](NC(=O)[C@@H](N)CC(N)=O)CSSC[C@H](NC(=O)[C@H](CSSC[C@@H](C(=O)N[C@@H](CCC(=O)O)C(=O)N[C@@H](CCCCN)C(=O)N[C@@H](Cc4ccc(O)cc4)C(=O)N[C@@H](CCCNC(=N)N)C(=O)O)NC(=O)[C@H](Cc4ccc(O)cc4)NC(=O)[C@@H]4CCCN4C1=O)NC(=O)[C@H](CCCCN)NC(=O)[C@H](CO)NC(=O)CNC(=O)[C@H](Cc1c[nH]c4ccccc14)NC(=O)CNC3=O)C(=O)N[C@@H](Cc1c[nH]cn1)C(=O)NCC(=O)N[C@@H](CC(C)C)C(=O)N[C@@H](CC(=O)O)C(=O)N2 [K2] (H-NCAKEGEVCGWGSKCCHGLDCPLAFIPYCEKYR-OH; disulfide 2-16, 9-21, 15-29 (inferred); N-terminus and C-terminus assumed)
Trp fluorescence, 10 mM HEPES, 1 mM EDTA, pH 7.0, fit of partition function, ± SEM, n = 3 or 4, SEM
  F/F0^max (relative fluorescence intensity at 320 nm when partitioning is saturated): 3.71 ± 0.40
From measured Kx
  measured free energy of membrane partitioning (ΔG° = −RT lnKx): -24.3 kJ/mol
